Test results reported in US20110257256A1, “CANNABINOIDS FOR USE IN TREATING OR […] […] […]” (priority 2008, published 2011).
≈ marks a conversion by molar mass, not a printed value. Like-named read-outs stand apart in the source and are kept apart here.

How the values were obtained:
[1] = test system: Myelomonocytic THP-1 cells; test: Cell viability of THP-1 cells by MTT-test and trypan blue exclusion; type: cell-based; conditions: 0.1-10 μg/ml, unstimulated or LPS (1 μg/ml) stimulated THP-1 cells, 48 h
Protocol: Myelomonocytic THP-1 cells were obtained from European Collection of Cell Cultures (ECACC). […] Afterwards, cells were stimulated or not with 1 μg/ml LPS for 48 h.
(§1) After incubation of PBMC with mitogens Con A or PHA (each 10 μg/ml) or treatment of THP-1 cells with LPS (1 μg/ml ), with or without cannabinoids for 48 h, cell viability was measured by MTT-test (3-[4,5-[…]]-2,5 diphenyl tetrazolium bromide) and by trypan blue exclusion method in three experiments performed in triplicates. No toxicity could be observed with solvent (0.1% EtOH; data not shown). IC50 were calculated by the CalcuSyn software from Biosoft, Cambridge, UK, using the original concept of Chou and Talalay (Chou and Talalay, 1984, Adv. Enzyme Regul. 22, 27-55).

IDO mRNA = IDO mRNA expression in PHA stimulated PBMC (real-time RT-PCR); type: cell-based, human; conditions: 5 μg/ml (highest concentration tested), PHA 5 μg/ml, 6 h
Protocol: (§2) For quantification of IDO and IFN-γ gene expression, RNA was extracted from PBMC using Trizol reagent (Invitrogen, Vienna, Austria) and reverse-transcribed using Superscript II reverse transcriptase (Invitrogen). Thirty cyles of PCR were performed using Sure Start Taq polymerase (Stratagene, La Jolla, Calif.). Levels of mRNA were quantified by real-time PCR with the ABI/PRISM 7700 sequence detection system (PE Applied Biosystems, Foster City, Calif.). 18sRNA was used as an invariant endogenous control. Specific primers and an internal fluorescent TaqMan probe were designed as follows: human 18sRNA primers, 5′-[…]-3′ (SEQ ID NO:1) and 5′-[…]-3′ (SEQ ID NO:2); 18sRNA probe, 5′-FAM-[…]-TAMRA-3′ (SEQ ID NO:3); human IDO primers, 5′-[…]-3′ (SEQ ID NO:4) and 5′-[…]-3′ (SEQ ID NO:5); IDO probe, 5′-FAM-[…]-TAMRA-3′ (SEQ ID NO:6); human IFN-γ primers, 5′[…]-3′ (SEQ ID NO:7), 5′-[…]-3′ (SEQ ID NO:8); IFN-γ probe, 5′-FAM-[…]-TAMRA-3′ (SEQ ID NO:9). Relative mRNA expression was calculated by dividing the relative quantity of each PCR product by the relative quantity of 18sRNA in each sample.

CB2 receptors = CB2 receptors (Homo sapiens, UniProt P34972); conditions: reported; cited from earlier work
CB1/CB2 = conditions: reported; cited from earlier work
IFN-γ mRNA = IFN-γ mRNA expression in PHA stimulated PBMC (real-time RT-PCR); type: cell-based, human; conditions: 5 μg/ml (highest concentration tested), PHA 5 μg/ml, 6 h
Protocol: as §2

[2] = test system: indoleamine 2,3-dioxygenase (IDO); test: IDO activity (kyn/trp by HPLC) in THP-1 cells; type: cell-based; conditions: for IC50: Homo sapiens, LPS (1 μg/ml) stimulated THP-1 cells, 48 h, read-out: IC50 decrease of kyn/trp (LPS-induced tryptophan degradation); for effect on tryptophan metabolism (kyn/trp): unstimulated THP-1 cells, CBD effect at the highest concentration tested
[3] = test system: human peripheral blood mononuclear cells (PBMC); test: Cell viability/proliferation of PBMC by MTT-test and trypan blue exclusion; type: cell-based; conditions: 48 h, read-out: IC50 number of viable cells
Protocol: PBMC were isolated from whole blood obtained from healthy donors of whom written informed consent was obtained that their donated blood might be used for scientific purposes in case when it was not selected for transfusion. Separation of blood cells was performed using density centrifugation (Lymphoprep, Nycomed Pharma AS, Oslo, Norway). After isolation, PBMC were washed three times in phosphate buffered saline containing 0.2% 0.5 mM EDTA. Cells were maintained in RPMI 1640 supplemented with 10% heat-inactivated fetal calf serum (Biochrom, Berlin, Germany), 2 mM glutamine (Serva, Heidelberg, Germany) and 0.05 mg/ml gentamicin (Bio-Whittaker, Walkersville, Md.) in a humidified atmosphere containing 5% CO2 for 48 h. This procedure was observed earlier to yield best reproducible results when applied for testing of anti-inflammatory effects of compounds or drugs (Winkler et al., 2007, Int. Arch. Allergy Immunol. 142, 127-132). For each of the four experiments run in duplicates, PBMC were freshly prepared.
Consequently, the cells were stimulated or not with 10 μg/ml PHA or Con A for 48 h.
as §1

neopterin formation = test: Neopterin formation in PBMC supernatants (ELISA); type: cell-based; conditions: Homo sapiens
[4] = test system: indoleamine 2,3-dioxygenase (IDO); test: IDO activity (kyn/trp by HPLC) in PBMC supernatants; type: cell-based, human; conditions: for IC50: Homo sapiens, PBMC; for effect of low doses on activity of the IDO enzyme: low doses 0.01-0.1 μg/ml, mitogen-stimulated PBMC
[5] = Con A-stimulated PBMC (10 μg/ml)
[6] = unstimulated PBMC, 0.01-20 μg/ml
[7] = 48 h, Con A-stimulated PBMC (10 μg/ml), 48 h, read-out: IC50 mitogen-induced neopterin production
[8] = 48 h, PHA-stimulated PBMC (10 μg/ml), 48 h, read-out: IC50 mitogen-induced neopterin production
[9] = unstimulated PBMC, read-out: IC50 release of neopterin
[10] = 48 h, Con A-stimulated PBMC (10 μg/ml), 48 h, read-out: IC50 mitogen-induced IDO activity (kyn/trp)
[11] = 48 h, PHA-stimulated PBMC (10 μg/ml), 48 h, read-out: IC50 mitogen-induced IDO activity (kyn/trp)
[12] = unstimulated PBMC, 0.01-10 μg/ml, read-out: IC50 decrease of kyn/trp

CB2 receptors, sequence (P34972 whole entry): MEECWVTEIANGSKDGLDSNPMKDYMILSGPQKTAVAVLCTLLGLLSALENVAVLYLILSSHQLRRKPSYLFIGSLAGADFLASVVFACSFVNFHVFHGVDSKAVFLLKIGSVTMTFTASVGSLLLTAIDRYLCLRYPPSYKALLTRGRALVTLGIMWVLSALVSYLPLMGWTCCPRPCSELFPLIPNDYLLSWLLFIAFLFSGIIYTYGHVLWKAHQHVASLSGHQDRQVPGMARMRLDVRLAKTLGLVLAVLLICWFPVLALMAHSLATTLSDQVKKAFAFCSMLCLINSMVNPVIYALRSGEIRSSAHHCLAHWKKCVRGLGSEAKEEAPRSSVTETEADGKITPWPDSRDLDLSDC

| Compound | influence on viability of THP-1 cells [1] | inhibition of mitogen-stimulated expression of IDO mRNA (IDO mRNA) | affinity (CB2 receptors) | KB antagonism of CB1/CB2 agonists (CB1/CB2) | inhibition of mitogen-stimulated expression of IFN-γ mRNA (IFN-γ mRNA) | IC50 [2] | effect on tryptophan metabolism (kyn/trp) [2] | IC50 [3, 5] | IC50 ([3]; PHA-stimulated PBMC (10 μg/ml)) | IC50 [3, 6] | IC50 (neopterin formation; [7]) | IC50 (neopterin formation; [8]) | IC50 (neopterin formation; [9]) | IC50 [4, 10] | IC50 [4, 11] | IC50 [4, 12] | effect of low doses on activity of the IDO enzyme [4] |
| --- | --- | --- | --- | --- | --- | --- | --- | --- | --- | --- | --- | --- | --- | --- | --- | --- | --- |
| C=C(C)[C@@H]1CCC(C)=C[C@H]1c1c(O)cc(CCCCC)cc1O [CBD, 2-[(1R,6R)-3-methyl-6-prop-1-en-2-yl-1-cyclohex-2-enyl]-5-pentylbenzene-1,3-diol] | did not show any influence | almost completely, inhibit | micromolar range | low nanomolar range | almost completely, inhibit | 0.3 µg/mL (≈ 0.954 µM) | faint suppression of tryptophan degradation | 8.6 µg/mL (≈ 27.3 µM) | 8.5 µg/mL (≈ 27 µM) | 7.3 µg/mL (≈ 23.2 µM) | 3.1 µg/mL (≈ 9.86 µM) | 3.7 µg/mL (≈ 11.8 µM) | 8.2 µg/mL (≈ 26.1 µM) | 2.8 µg/mL (≈ 8.9 µM) | 1.4 µg/mL (≈ 4.45 µM) | 1.2 µg/mL (≈ 3.82 µM) | modest but significant increase |
| CCCCCc1cc(O)c2c(c1)OC(C)(C)[C@@H]1CCC(C)=C[C@@H]21 [THC, (6aR,10aR)-6,6,9-Trimethyl-3-pentyl-6a, 7,8,10a-tetrahydro-6H-benzo[c]chromen-1-ol] | did not show any influence | almost completely, inhibit | – | – | almost completely, inhibit | 0.6 µg/mL (≈ 1.91 µM) | did not influence tryptophan metabolism | 17.5 µg/mL (≈ 55.6 µM) | 15.2 µg/mL (≈ 48.3 µM) | 14.5 µg/mL (≈ 46.1 µM) | 6.7 µg/mL (≈ 21.3 µM) | 5.3 µg/mL (≈ 16.9 µM) | 16.7 µg/mL (≈ 53.1 µM) | 4.2 µg/mL (≈ 13.4 µM) | 5.5 µg/mL (≈ 17.5 µM) | 2.6 µg/mL (≈ 8.27 µM) | modest but significant increase |
